In patent US20150105252A1, “SUBSTITUTED PYRAZOLES AS HERBICIDES” (E I DU PONT DE NEMOURS AND COMPANY, priority 2013, published 2015):

Tests used:
barnyardgrass [1] = assay: Test A postemergence; format: in vivo, Echinochloa crus-galli
Method in brief: (§1)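 Pre- and postemergence greenhouse test; loam+sand; cpd in non-phytotox. solvent/surfactant; post at 1–2 leaf, 2–10 cm; visual score ~10 d, 0 = none, 100 = complete control.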

foxtail, giant [2] = assay: Test A postemergence; format: in vivo, Setaria faberii
Method in brief: as §1

ducksalad = assay: Test B flood; format: in vivo, Heteranthera limosa; conditions: 250 g ai/ha, visual rating on 0 to 100 scale (0 no effect, 100 complete control), 13 to 15 days
Method in brief: (§2)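 Flooded-pot test: compound dosed into 3 cm of standing water above soil when plants had two leaves. Visual control ratings (0–100) versus untreated plants after 13–15 d.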

corn [3] = assay: Test A postemergence; format: in vivo, Zea mays
Method in brief: as §1

morningglory [4] = assay: Test A preemergence; format: in vivo, Ipomoea spp.; conditions: preemergence; for Morningglory plant response rating (0 to 100 scale): 125 g ai/ha, visual injury approx. 10 days after treatment; for Morningglory plant response rating: 500 g ai/ha, visual injury after approx. 10 days, 0 to 100 scale (0 no effect, 100 complete control)
Method in brief: as §1

morningglory [5] = assay: Test A postemergence; format: in vivo, Ipomoea spp.
Method in brief: as §1

crabgrass, large [6] = assay: Test A postemergence; format: in vivo, Digitaria sanguinalis
Method in brief: as §1

barnyardgrass [7] = assay: Test B flood; format: in vivo, Echinochloa crus-galli; conditions: 250 g ai/ha, visual rating on 0 to 100 scale (0 no effect, 100 complete control), 13 to 15 days
Method in brief: as §2

wheat [8] = assay: Test A postemergence; format: in vivo, Triticum aestivum
Method in brief: as §1

barnyardgrass [9] = assay: Test A preemergence; format: in vivo, Echinochloa crus-galli; conditions: preemergence
Method in brief: as §1

corn [10] = assay: Test A preemergence; format: in vivo, Zea mays; conditions: preemergence; for Corn plant response rating (0 to 100 scale): 125 g ai/ha, visual injury approx. 10 days after treatment; for Corn plant response rating: 500 g ai/ha, visual injury after approx. 10 days, 0 to 100 scale (0 no effect, 100 complete control)
Method in brief: as §1

sedge, umbrella = assay: Test B flood; format: in vivo, Cyperus difformis; conditions: 250 g ai/ha, visual rating on 0 to 100 scale (0 no effect, 100 complete control), 13 to 15 days
Method in brief: as §2

crabgrass, large [11] = assay: Test A preemergence; format: in vivo, Digitaria sanguinalis; conditions: preemergence; for Crabgrass, Large plant response rating (0 to 100 scale): 125 g ai/ha, visual injury approx. 10 days after treatment; for Crabgrass, Large plant response rating: 500 g ai/ha, visual injury after approx. 10 days, 0 to 100 scale (0 no effect, 100 complete control)
Method in brief: as §1

rice = assay: Test B flood; format: in vivo, Oryza sativa; conditions: 250 g ai/ha, visual rating on 0 to 100 scale (0 no effect, 100 complete control), 13 to 15 days
Method in brief: as §2

velvetleaf [12] = assay: Test A preemergence; format: in vivo, Abutilon theophrasti; conditions: preemergence; for Velvetleaf plant response rating (0 to 100 scale): 125 g ai/ha, visual injury approx. 10 days after treatment; for Velvetleaf plant response rating: 500 g ai/ha, visual injury after approx. 10 days, 0 to 100 scale (0 no effect, 100 complete control)
Method in brief: as §1

pigweed [13] = assay: Test A preemergence; format: in vivo, Amaranthus retroflexus; conditions: preemergence; for Pigweed plant response rating (0 to 100 scale): 125 g ai/ha, visual injury approx. 10 days after treatment; for Pigweed plant response rating: 500 g ai/ha, visual injury after approx. 10 days, 0 to 100 scale (0 no effect, 100 complete control)
Method in brief: as §1

velvetleaf [14] = assay: Test A postemergence; format: in vivo, Abutilon theophrasti
Method in brief: as §1

pigweed [15] = assay: Test A postemergence; format: in vivo, Amaranthus retroflexus
Method in brief: as §1

wheat [16] = assay: Test A preemergence; format: in vivo, Triticum aestivum; conditions: preemergence; for Wheat plant response rating (0 to 100 scale): 125 g ai/ha, visual injury approx. 10 days after treatment; for Wheat plant response rating: 500 g ai/ha, visual injury after approx. 10 days, 0 to 100 scale (0 no effect, 100 complete control)
Method in brief: as §1

foxtail, giant [17] = assay: Test A preemergence; format: in vivo, Setaria faberii; conditions: preemergence; for Foxtail, Giant plant response rating (0 to 100 scale): 125 g ai/ha, visual injury approx. 10 days after treatment; for Foxtail, Giant plant response rating: 500 g ai/ha, visual injury after approx. 10 days, 0 to 100 scale (0 no effect, 100 complete control)
Method in brief: as §1

[18] = Postemergence, 500 g ai/ha, 0 to 100 scale (0 no effect, 100 complete control)
[19] = postemergence, 125 g ai/ha, about 10 days, visual rating on 0 to 100 scale (0 no effect, 100 complete control)
[20] = 125 g ai/ha, visual injury, 0 to 100 scale, approx. 10 days
[21] = 500 g ai/ha, visual injury after approx. 10 days, 0 to 100 scale (0 no effect, 100 complete control)

Structure (SMILES)	Barnyardgrass plant response rating (barnyardgrass [1]; [18])	Barnyardgrass plant response rating (barnyardgrass [1]; [19])	Foxtail, Giant plant response rating (foxtail, giant [2]; [18])	Foxtail, Giant plant response rating (foxtail, giant [2]; [19])	Plant response rating, Ducksalad (ducksalad)	Corn plant response rating (corn [3]; [18])	Corn plant response rating (corn [3]; [19])	Morningglory plant response rating (0 to 100 scale) (morningglory [4])	Morningglory plant response rating (morningglory [4])	Morningglory plant response rating (morningglory [5]; [18])	Morningglory plant response rating (morningglory [5]; [19])	Crabgrass, Large plant response rating (crabgrass, large [6]; [18])	Crabgrass, Large plant response rating (crabgrass, large [6]; [19])	Plant response rating, Barnyardgrass (barnyardgrass [7])	Wheat plant response rating (wheat [8]; [18])	Wheat plant response rating (wheat [8]; [19])	Barnyardgrass plant response rating (barnyardgrass [9]; [20])	Barnyardgrass plant response rating (barnyardgrass [9]; [21])	Corn plant response rating (0 to 100 scale) (corn [10])	Corn plant response rating (corn [10])	other results
CCCCc1cc(C(=O)NC2CC2)nn1Cc1ccnc(C(F)(F)F)c1 [Compound 151]	50	10	70	20	0	50	10	0	30	90	50	80	30	0	10	0	0	60	0	0	Plant response rating, Sedge, Umbrella (sedge, umbrella): 60; Crabgrass, Large plant response rating (0 to 100 scale) (crabgrass, large [11]): 80; Crabgrass, Large plant response rating (crabgrass, large [11]): 100; Plant response rating, Rice (rice): 0; Velvetleaf plant response rating (0 to 100 scale) (velvetleaf [12]): 0; Velvetleaf plant response rating (velvetleaf [12]): 70; Pigweed plant response rating (0 to 100 scale) (pigweed [13]): 70; Pigweed plant response rating (pigweed [13]): 100; Velvetleaf plant response rating (velvetleaf [14]; [18]): 60; Velvetleaf plant response rating (velvetleaf [14]; [19]): 30; Pigweed plant response rating (pigweed [15]; [18]): 100; Pigweed plant response rating (pigweed [15]; [19]): 70; Wheat plant response rating (0 to 100 scale) (wheat [16]): 0; Wheat plant response rating (wheat [16]): 10; Foxtail, Giant plant response rating (0 to 100 scale) (foxtail, giant [17]): 50; Foxtail, Giant plant response rating (foxtail, giant [17]): 100
O=C(NC1CC1)c1cc(Br)n(Cc2cccc(C(F)(F)F)c2)n1 [Compound 160]	30	0	30	20	0	20	0	0	0	20	0	40	20	0	0	0	0	10	0	0	Plant response rating, Sedge, Umbrella (sedge, umbrella): 0; Crabgrass, Large plant response rating (0 to 100 scale) (crabgrass, large [11]): 50; Crabgrass, Large plant response rating (crabgrass, large [11]): 90; Plant response rating, Rice (rice): 0; Velvetleaf plant response rating (0 to 100 scale) (velvetleaf [12]): 0; Velvetleaf plant response rating (velvetleaf [12]): 10; Pigweed plant response rating (0 to 100 scale) (pigweed [13]): 50; Pigweed plant response rating (pigweed [13]): 90; Velvetleaf plant response rating (velvetleaf [14]; [18]): 60; Velvetleaf plant response rating (velvetleaf [14]; [19]): 30; Pigweed plant response rating (pigweed [15]; [18]): 80; Pigweed plant response rating (pigweed [15]; [19]): 50; Wheat plant response rating (0 to 100 scale) (wheat [16]): 0; Wheat plant response rating (wheat [16]): 0; Foxtail, Giant plant response rating (0 to 100 scale) (foxtail, giant [17]): 0; Foxtail, Giant plant response rating (foxtail, giant [17]): 60
